# Laboratory results taken from patent US12378211B2, “Carbonic anhydrase inhibitors and antibiotics against multidrug resistant bacteria” (Purdue Research Foundation, priority 2018, dated 2025).
# Like-named read-outs stand apart in the source and are kept apart here.
# How the values were obtained:
# [1] = tested on: Enterococcus faecalis—S613 HM-334; experiment: MIC of CAIs in BHIB and TSB; type: cell-based
# Procedure: The minimum inhibitory concentrations (MICs) of CAIs were tested against clinical isolates of vancomycin sensitive and vancomycin resistant Enterococci strains as per the guidelines provided by the Clinical and Laboratory Standards Institute (CLSI). The selected strains of Enterococci were streaked on Tryptic Soy Agar (TSA) plates and let grow for 24 hours at 37° C. Afterwards, a bacterial solution equivalent to 0.5 McFarland standard was prepared and diluted in tryptone soy broth (TSB) or brain heart infusion broth (BHIB) to achieve a bacterial concentration of about 5×10^5 CFU/mL and seeded in 96-well well plates. Compounds and control drugs were added in the first row of the 96-well plates and serially diluted along the plates. Plates were then incubated aerobically at 37° C. for 18-20 hours. MICs reported in Table 5 are the minimum concentration of the compounds/control drugs that could inhibit completely the visual growth of the bacteria. The MIC values of CAIs against the tested VRE strains were higher in BHIB than in TSB. This may be due to binding of these drugs to proteins. […] They inhibited the VRE strains at MIC values ranging from 1 to 4 μg/mL.
# [2] = tested on: Enterococcus faecalis-S613 HM-334; experiment: MIC in presence of 4% human serum albumin; type: cell-based; settings: Enterococcus; TSB supplemented with 4% human serum albumin; read-out: MIC
# Procedure: The minimum inhibitory concentrations (MICs) of CAIs were tested against vancomycin resistant Enterococcus faecalis—S613 HM 334 strain as per the guidelines provided by the Clinical and Laboratory Standards Institute (CLSI). The selected strain was streaked on Tryptic Soy Agar (TSA) plate and let grow for 24 hours at 37° C. Afterwards, a bacterial solution equivalent to 0.5 McFarland standard was prepared and diluted in tryptone soy broth (TSB) supplemented with 4% human serum albumin (HAS) to achieve a bacterial concentration of about 5×10^5 CFU/mL and seeded in 96-well well plates. Compounds and control drugs were added in the first row of the 96-well plates and serially diluted along the plates. Plates were then incubated aerobically at 37° C. for 18-20 hours. MICs reported in table (6) are the minimum concentration of the compounds/control drugs that could inhibit completely the visual growth of the bacteria.
# [3] = tested on: Enterococcus faecium Patient #2-1-NR-31909; experiment: MIC of CAIs in BHIB and TSB; type: cell-based
# Procedure: (§1) The minimum inhibitory concentrations (MICs) of CAIs were tested against clinical isolates of vancomycin sensitive and vancomycin resistant Enterococci strains as per the guidelines provided by the Clinical and Laboratory Standards Institute (CLSI). The selected strains of Enterococci were streaked on Tryptic Soy Agar (TSA) plates and let grow for 24 hours at 37° C. Afterwards, a bacterial solution equivalent to 0.5 McFarland standard was prepared and diluted in tryptone soy broth (TSB) or brain heart infusion broth (BHIB) to achieve a bacterial concentration of about 5×10^5 CFU/mL and seeded in 96-well well plates. Compounds and control drugs were added in the first row of the 96-well plates and serially diluted along the plates. Plates were then incubated aerobically at 37° C. for 18-20 hours. MICs reported in Table 5 are the minimum concentration of the compounds/control drugs that could inhibit completely the visual growth of the bacteria.
# [4] = tested on: Enterococcus faecium E417-HM-965; experiment: MIC of CAIs in BHIB and TSB; type: cell-based
# Procedure: as §1
# [5] = tested on: Enterococcus fecalis Strain SF 24397 NR31970; experiment: MIC of CAIs in BHIB and TSB; type: cell-based
# Procedure: as §1
# [6] = tested on: Enterococcus fecalis Strain SF24413 NR31971; experiment: MIC, broth microdilution in TSB; type: cell-based; settings: Enterococcus
# Procedure: (§2) The minimum inhibitory concentrations (MICs) of the compounds and control drugs were determined using the broth microdilution method, according to guidelines outlined by the Clinical and Laboratory Standards Institute (CLSI). Enterococci strains were grown aerobically overnight on tryptone soya agar plates at 37° C., afterwards a bacterial solution equivalent to 0.5 McFarland standard was prepared and diluted in tryptone soy broth (TSB) to achieve a bacterial concentration of about 5×10^5 CFU/mL and seeded in 96-well well plates. Compounds and control drugs were added in the first row of the 96-well plates and serially diluted along the plates. Plates were then incubated aerobically at 37° C. for 18-20 hours. MICs reported in Table 1 are the minimum concentration of the compounds/control drugs that could inhibit completely the visual growth of the bacteria.
# [7] = tested on: Enterococcus fecalis Strain MMH594-NR31975; experiment: MIC, broth microdilution in TSB; type: cell-based; settings: Enterococcus
# Procedure: as §2
# [8] = tested on: Enterococcus fecalis Strain SF 28073-NR31972; experiment: MIC, broth microdilution in TSB; type: cell-based; settings: Enterococcus
# Procedure: as §2
# [9] = tested on: Enterococcus faecium Patient #2-1-NR-31909; experiment: MIC, broth microdilution in TSB; type: cell-based; settings: Enterococcus faecium
# Procedure: as §2
# [10] = tested on: Enterococcus faecium Patient #3-1 NR-31912; experiment: MIC, broth microdilution in TSB; type: cell-based; settings: Enterococcus faecium
# Procedure: as §2
# [11] = tested on: Enterococcus faecium E417-HM-965; experiment: MIC, broth microdilution in TSB; type: cell-based; settings: Enterococcus faecium
# Procedure: as §2
# [12] = tested on: Enterococcus fecalis Strain SF 24397 NR31970; experiment: MIC, broth microdilution in TSB; type: cell-based; settings: Enterococcus
# Procedure: as §2
# [13] = tested on: Enterococcus faecalis—S613 HM-334; experiment: MIC, broth microdilution in TSB; type: cell-based; settings: Enterococcus
# Procedure: as §2
# [14] = tested on: MRSA NRS 384 (MRSA USA300); experiment: MIC against Staphylococci, broth microdilution; type: cell-based, Staphylococcus aureus; settings: Staphylococcus aureus
# Procedure: as §2, with “Institute (CLSI) 1. Staphylococci” for “Institute (CLSI). Enterococci”, “Table 2” for “Table 1”
# [15] = tested on: Staphylococcus epidermidis NRS 101; experiment: MIC against Staphylococci, broth microdilution; type: cell-based; settings: Staphylococcus epidermidis, NRS101
# Procedure: as §2, with “Institute (CLSI) 1. Staphylococci” for “Institute (CLSI). Enterococci”, “Table 2” for “Table 1”
# [16] = tested on: Bacteroides dorei—CL02T12C06 HM-719; experiment: MIC against human normal gut microbiota; type: cell-based; settings: Bacteroides, 48 h
# Procedure: (§3) Three different bacterial strains were used in this experiment; Bifidobacterium (anaerobic Gram positive bacteria), Bacteroides (anaerobic Gram negative bacteria) and Lactobacillus (microaerophilic Gram positive bacteria). Bifidobacterium and Bacteroides were first grown for 48 hours at 37° C., anaerobically using brain heart infusion supplemented (BHIS) agar (Brain heart infusion agar supplemented with hemin, vitamin K and L-cysteine). Lactobacillus was cultivated on MRS agar and incubated in presence of 5% CO2 for 48 hours at 37° C. Each bacterium was suspended in phosphate buffered saline (PBS) to produce a suspension with optical density that matches 0.5 McFarland standard and diluted in brain heart infusion supplemented broth (for Bifidobacterium and Bacteroides) or in MRS broth (for Lactobacillus) to achieve bacterial concentration of approximately 5×10^5 CFU/ml. Bacteria were then seeded in 96-well plates containing serial dilutions of the compounds and incubated as mentioned previously for 48 hours.
# [17] = tested on: Bifidobacterium longum subsp. Longum—44B HM 845; experiment: MIC against human normal gut microbiota; type: cell-based; settings: Bifidobacterium longum, 48 h
# Procedure: as §3
# [18] = tested on: Bifidobacterium breve—JCP7499 HIM 1120; experiment: MIC against human normal gut microbiota; type: cell-based; settings: Bifidobacterium, 48 h
# Procedure: as §3
# [19] = tested on: Lactobacillus casei ATCC 334; experiment: MIC against human normal gut microbiota; type: cell-based; settings: Lacticaseibacillus casei, ATCC334, 48 h
# Procedure: as §3
# [20] = tested on: Bacteroides fragilis—CL07T00C01 HIM-709; experiment: MIC against human normal gut microbiota; type: cell-based; settings: Bacteroides, 48 h
# Procedure: as §3
# [21] = tested on: Lactobacillus gasseri EX336960VC03 HIM-400; experiment: MIC against human normal gut microbiota; type: cell-based; settings: Lactobacillus gasseri, 48 h
# Procedure: as §3
# [22] = Enterococcus, BHIIB, read-out: MIC
# [23] = Enterococcus, TSB, Table 5, read-out: MIC
# [24] = Enterococcus faecium, BHIB, read-out: MIC
# [25] = Enterococcus faecium, TSB, Table 5, read-out: MIC
# [26] = Enterococcus faecium, E417HM965, BHIB, read-out: MIC
# [27] = Enterococcus faecium, E417HM965, TSB, Table 5, read-out: MIC
# [28] = Enterococcus, BHIB, read-out: MIC
smiles,measurement,setting,value
CCOc1ccc2nc(S(N)(=O)=O)sc2c1 [Ethoxzolamide],MIC,[1]; [22],> 128 µg/mL
same,MIC,[1]; [23],1 µg/mL
same,MIC,[2],> 256 µg/mL
same,MIC,[3]; [24],64 µg/mL
same,MIC,[3]; [25],2 µg/mL
same,MIC,[4]; [26],16 µg/mL
same,MIC,[4]; [27],2 µg/mL
same,MIC,[5]; [28],> 128 µg/mL
same,MIC,[5]; [23],2 µg/mL
"CN[C@H](CC(C)C)C(=O)N[C@H]1C(=O)N[C@@H](CC(N)=O)C(=O)N[C@H]2C(=O)N[C@H]3C(=O)N[C@H](C(=O)N[C@H](C(=O)O)c4cc(O)cc(O)c4-c4cc3ccc4O)[C@H](O)c3ccc(c(Cl)c3)Oc3cc2cc(c3O[C@@H]2O[C@H](CO)[C@@H](O)[C@H](O)[C@H]2O[C@H]2C[C@](C)(N)[C@H](O)[C@H](C)O2)Oc2ccc(cc2Cl)[C@H]1O [Vancomycin, reference compound]",MIC,[6],32 µg/mL
same,MIC,[6]; read-out: MIC in TSB,32 µg/mL
same,MIC,[7],2 µg/mL
same,MIC,[7]; read-out: MIC in TSB,2 µg/mL
same,MIC,[8],> 64 µg/mL
same,MIC,[8]; read-out: MIC in TSB,> 64 µg/mL
same,MIC,[9],> 64 µg/mL
same,MIC,[9]; read-out: MIC in TSB,> 64 µg/mL
same,MIC,[10],> 64 µg/mL
same,MIC,[10]; read-out: MIC in TSB,> 64 µg/mL
same,MIC,[11]; E417HM965,> 64 µg/mL
same,MIC,"[11]; E417HM965, read-out: MIC in TSB",> 64 µg/mL
same,MIC,[12],2 µg/mL
same,MIC,[12]; read-out: MIC in TSB,2 µg/mL
same,MIC,[13],> 64 µg/mL
same,MIC,[13]; read-out: MIC in TSB,> 64 µg/mL
same,MIC,[1]; Enterococcus,> 128 µg/mL
same,MIC,"[1]; TSB, Table 5",>128 µg/mL
same,MIC,[14],1 µg/mL
same,MIC,[15],4 µg/mL
same,MIC,[16],64 µg/mL
same,MIC,[17],8 µg/mL
same,MIC,[18],8 µg/mL
same,MIC,[19],> 64 µg/mL
same,MIC,[20],64 µg/mL
same,MIC,[21],> 64 µg/mL
same,MIC,[3]; Enterococcus faecium,> 128 µg/mL
same,MIC,"[3]; TSB, Table 5",>128 µg/mL
same,MIC,"[4]; Enterococcus faecium, E417HM965",> 128 µg/mL
same,MIC,"[4]; TSB, Table 5",>128 µg/mL
same,MIC,[5]; Enterococcus,2 µg/mL
same,MIC,"[5]; TSB, Table 5",2 µg/mL
CCN[C@H]1CN(CCCOC)S(=O)(=O)c2sc(S(N)(=O)=O)cc21 [Brinzolamide],MIC,[1]; [22],> 128 µg/mL
same,MIC,[1]; [23],2 µg/mL
same,MIC,[2],> 256 µg/mL
same,MIC,[3]; [24],> 128 µg/mL
same,MIC,[3]; [25],4 µg/mL
same,MIC,[4]; [26],16 µg/mL
same,MIC,[4]; [27],2 µg/mL
same,MIC,[5]; [28],> 128 µg/mL
same,MIC,[5]; [23],2 µg/mL
